Test results: BindingDB's records for doi:10.1021/acsmedchemlett.9b00286 (Bristol Myers Squibb, 2019)

Experiment: Inhibition of NS5A in HCV genotype 1b assessed as decrease in viral replication

COC(=O)N[C@H](C(=O)N1CCC[C@H]1c1nc(-c2ccc(-c3ccc(-c4c[nH]c([C@@H]5CCCN5C(=O)[C@@H](NC(=O)OC)C(C)C)n4)cc3)cc2)c[nH]1)C(C)C [BMS-790052]
EC50: 4 pM
